Results as given in paper PMC12687421, “Characterisation of an allosteric site in PLCγ enzymes and implications for development of their specific inhibitors” (Biochemical Journal, 2025).

Target: T1, PLCγ1^wt (Homo sapiens, UniProt P19174, I813T)
T1 construct: specific activities of PLCγ1^wt and PLCγ2^wt full-length proteins; made in house; host or cells: Escherichia coli T7 Express lysY/Iq
T1 sequence (P19174 1-1291 isoform P19174-2 I813T): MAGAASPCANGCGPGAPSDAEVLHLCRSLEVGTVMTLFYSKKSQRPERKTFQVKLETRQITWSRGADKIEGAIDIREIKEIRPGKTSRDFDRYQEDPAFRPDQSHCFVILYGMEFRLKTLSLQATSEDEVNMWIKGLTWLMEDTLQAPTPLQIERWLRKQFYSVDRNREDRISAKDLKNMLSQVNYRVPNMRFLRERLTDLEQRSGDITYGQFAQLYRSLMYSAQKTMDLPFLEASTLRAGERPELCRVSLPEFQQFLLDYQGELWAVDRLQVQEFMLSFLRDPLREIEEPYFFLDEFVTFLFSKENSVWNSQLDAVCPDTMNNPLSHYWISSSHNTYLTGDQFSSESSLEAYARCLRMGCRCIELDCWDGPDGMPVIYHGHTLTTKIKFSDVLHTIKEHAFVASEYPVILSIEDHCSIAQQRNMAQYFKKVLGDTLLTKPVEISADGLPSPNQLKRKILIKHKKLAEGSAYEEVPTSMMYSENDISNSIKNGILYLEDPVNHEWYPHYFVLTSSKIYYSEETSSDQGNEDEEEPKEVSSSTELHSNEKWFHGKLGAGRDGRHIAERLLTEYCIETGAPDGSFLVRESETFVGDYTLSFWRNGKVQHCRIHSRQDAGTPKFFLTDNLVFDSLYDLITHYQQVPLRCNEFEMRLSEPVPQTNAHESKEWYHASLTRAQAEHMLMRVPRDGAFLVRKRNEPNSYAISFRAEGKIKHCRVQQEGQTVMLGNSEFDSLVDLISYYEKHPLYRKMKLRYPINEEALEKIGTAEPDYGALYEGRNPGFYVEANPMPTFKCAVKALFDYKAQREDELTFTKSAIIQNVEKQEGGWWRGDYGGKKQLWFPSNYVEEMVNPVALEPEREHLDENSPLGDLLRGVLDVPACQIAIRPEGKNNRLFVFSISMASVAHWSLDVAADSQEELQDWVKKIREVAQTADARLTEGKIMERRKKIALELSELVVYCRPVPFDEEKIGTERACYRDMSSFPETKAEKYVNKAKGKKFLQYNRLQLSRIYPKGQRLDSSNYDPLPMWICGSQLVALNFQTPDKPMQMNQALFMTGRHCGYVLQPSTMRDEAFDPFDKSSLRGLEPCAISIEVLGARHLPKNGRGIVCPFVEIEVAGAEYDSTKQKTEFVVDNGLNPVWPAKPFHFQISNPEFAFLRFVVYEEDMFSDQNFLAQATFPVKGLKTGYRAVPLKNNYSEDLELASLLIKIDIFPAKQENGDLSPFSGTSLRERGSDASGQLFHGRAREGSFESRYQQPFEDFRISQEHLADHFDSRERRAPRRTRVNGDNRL
Assay: Assay 1 (A1) with FGFR1 kinase domain (phosphorylation), with or without nickel lipids
Assay type: biochemical
Description: A CLARIOstar plate reader (BMG Labtech) was used to measure the production of the fluorescent product. The excitation and emission wavelengths were 485–15 and 520–20, respectively. Each experiment was performed in at least triplicate; in many cases, nine-fold replicates were generated. The enzyme progress curves were plotted for each concentration of nucleotide using Graphpad Prism software. The initial linear rate of product generation was calculated and converted to a % inhibition when compared with the rate of PLC activity in the absence of nucleotide. These % inhibition values were plotted against the logarithm of the nucleotide concentration in Graphpad Prism and the data fitted with the function (Inhibitor) vs. response–variable slope (four parameters). The resultant fit yielded the IC50 values for the nucleotide inhibition.
The standard XY-69 assay outlined above was followed with the following changes. The PLC activity buffer also contained 10 mM MgCl2. The final concentration of PLCγ1^WT in the assay was 12.5 nM and also contained a 10-fold excess of the FGFR1 kinase domain. The ATP dilution series was first added to the assay plate, followed by the enzyme mix. […] Subsequently, the standard XY-69 liposomes (with or without nickel lipids) were added, and the experiment monitored in the Clariostar as outlined above.

inhibition with membrane proximity and phospho-PLCγ1 combined (10% Ni-lipids and FGFR1-KD, range of ATP concentrations including physiological levels): clear reduction in nucleotide inhibition
Structure (SMILES): Nc1ncnc2c1ncn2[C@@H]1O[C@H](COP(=O)(O)OP(=O)(O)OP(=O)(O)O)[C@@H](O)[C@H]1O [ATP]
PLC activity with increasing ATP in presence of FGFR1 kinase (FGFR1 kinase domain, no Ni-lipids): enhanced PLC activity compared with the control
